We go through twelve molecules from ChEMBL document CHEMBL1201862, “PubChem BioAssay data set” (2004).

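Method: 48-hour compound exposure of cells in 96-well plates, five concentrations, linear interpolation of endpoints. Here, GI50 denotes the concentration required for 50% inhibition of growth.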 Active and inactive are the calls of the source. No stated cut-off is given here; in the data, active = GI50 up to about 1.1 µM and inactive = higher.

Some test systems named below: HCT-116; UACC-62; HCT-15; SK-OV-3; UACC-257; CCRF-CEM; SK-MEL-28; SN12C; SNB-75; IGROV-1; OVCAR-3; HT-29; U-251; RPMI-8226; UO-31; SF-539; OVCAR-5; HCC 2998; A498.
Common to all, as to assay: NCI tumour cell line growth inhibition, 48 h

As to `COC1(OC)CC2C(=O)N(Cc3ccccc3)C1CC2S(=O)(=O)c1ccccc1` (configuration not stated), the GI50 in the test with HCT-116 is > 100 µM (inactive); in the test on UACC-62, > 100 µM (inactive); with HCT-15, more than 100 µM; in the test with SK-OV-3, > 100 µM (inactive); with UACC-257, > 100 µM (inactive); with CCRF-CEM, > 100 µM (inactive). The GI50 in the test with SK-MEL-28, in the test on SN12C, in the test with SNB-75, in the test on IGROV-1, in the test with OVCAR-3 and in the test on HT-29 was > 100 µM (inactive) each time. The GI50 in the test on U-251 was > 100 µM (inactive); in the test with RPMI-8226 it was > 100 µM (inactive); in the test with UO-31, 62.1 µM (inactive); in the test on SF-539 it was > 100 µM (inactive).

For the molecule `Nc1c2ccccc2nc2c1ccc1ncccc12`, the GI50 was 5.22 µM (inactive) in the test on HCT-116; 14.5 µM (inactive) in the test on UACC-62; 21.5 µM (inactive) in the test on OVCAR-5; 14.2 µM in the test with HCT-15; 30.5 µM (inactive) in the test with SK-OV-3; 28.8 µM (inactive) in the test on UACC-257. In addition, the GI50 is 6.78 µM (inactive) in the test on CCRF-CEM; 8.99 µM (inactive) in the test on HCC 2998; 33.7 µM (inactive) in the test with SK-MEL-28; 21.1 µM (inactive) in the test on SN12C; 22.3 µM (inactive) with SNB-75; 12.9 µM (inactive) in the test with IGROV-1. Moreover, the GI50 is 24 µM (inactive) with OVCAR-3; 11.5 µM (inactive) in the test with HT-29; 39.1 µM (inactive) in the test with U-251; 10.1 µM (inactive) with UO-31; 14.7 µM (inactive) in the test with SF-539.

For `CCCCCCCCCC(=O)CC(=O)c1ccc(O)cc1O`, the GI50 with HCT-116 is 26.1 µM (inactive); with UACC-62 it was 21.2 µM (inactive); with OVCAR-5, 21.1 µM (inactive); in the test on HCT-15 it was 30.2 µM; in the test on SK-OV-3, > 100 µM (inactive); in the test with UACC-257, 28.8 µM (inactive). In addition, the GI50 in the test with CCRF-CEM was 33.9 µM (inactive); in the test on HCC 2998, 21.3 µM (inactive); in the test with SK-MEL-28 it was 39.8 µM (inactive); with SN12C it was 27.3 µM (inactive); with SNB-75, 33.6 µM (inactive); in the test on IGROV-1, 31.5 µM (inactive). The GI50 was 22.6 µM (inactive) in the test on OVCAR-3; 35.9 µM (inactive) with HT-29; 26.9 µM (inactive) in the test on U-251; 19.5 µM (inactive) with RPMI-8226; 19.7 µM (inactive) in the test with UO-31; 26.5 µM (inactive) in the test with SF-539.

Take `CCC12C=CCN3CCC4(C(=C(C(=O)OC)C1)Nc1ccccc14)[C@H]32` (some centres not stated): the GI50 is 30.8 µM (inactive) in the test with HCT-116; 21.3 µM (inactive) with UACC-62; 70.8 µM (inactive) in the test on OVCAR-5; 40.3 µM in the test on HCT-15; 21.8 µM (inactive) with SK-OV-3; 34.4 µM (inactive) in the test on UACC-257. In addition, the GI50 in the test on CCRF-CEM was 22.2 µM (inactive); in the test with HCC 2998 it was 33.3 µM (inactive); in the test with SK-MEL-28, 41.7 µM (inactive); with SNB-75, 22 µM (inactive); with IGROV-1 it was 39.1 µM (inactive); in the test on OVCAR-3, 30.8 µM (inactive). In addition, the GI50 in the test with HT-29 is 22.6 µM (inactive); with UO-31, 65.2 µM (inactive); in the test with SF-539, 20.5 µM (inactive); with A498 it was 29.6 µM (inactive).

With `O=C(NCCNCCO)N/N=C/c1ccccc1`, the GI50 is > 100 µM (inactive) with HCT-116; > 100 µM (inactive) in the test with UACC-62; more than 100 µM in the test on HCT-15; > 100 µM (inactive) with SK-OV-3; > 100 µM (inactive) with UACC-257; > 100 µM (inactive) in the test on CCRF-CEM. For the same molecule, the GI50 in the test with SK-MEL-28, with SN12C, in the test with SNB-75, in the test on IGROV-1, with OVCAR-3 and in the test with HT-29 was > 100 µM (inactive) throughout. Besides, the GI50 in the test with U-251 and in the test with SF-539 was > 100 µM (inactive) each time.

`CCCCCCCCCCCCCCCCCCNC(=S)N/C=C1\C(=O)Nc2ccccc2C1=O`: the GI50 in the test on HCT-116 was 15.7 µM (inactive); with OVCAR-5, 15.4 µM (inactive); in the test with HCT-15, 15.6 µM; in the test with SK-OV-3 it was 19.2 µM (inactive); with UACC-257 it was 17.1 µM (inactive); with HCC 2998 it was 16.3 µM (inactive). Further, the GI50 in the test with SK-MEL-28 was 16.5 µM (inactive); with SN12C, 22.4 µM (inactive); with SNB-75, 13.2 µM (inactive); in the test with IGROV-1, 5.83 µM (inactive); in the test with OVCAR-3, 18.5 µM (inactive); in the test with HT-29, 16.9 µM (inactive). Besides, the GI50 was 19.2 µM (inactive) in the test on U-251, 15.5 µM (inactive) in the test with UO-31, 19.7 µM (inactive) with SF-539 and 21.4 µM (inactive) in the test on A498.

For `Cn1cc(NC(=O)c2cc(NC(=O)CCCCCCCCC(=O)Nc3cc(C(=O)Nc4cc(C(=O)NCCC(N)N)n(C)c4)n(C)c3)cn2C)cc1C(=O)NCCC(=N)N`, the GI50 was 20 µM (inactive) with HCT-116; 20.7 µM (inactive) in the test with UACC-62; 21.4 µM (inactive) with OVCAR-5; 35.4 µM with HCT-15; 27.9 µM (inactive) with SK-OV-3; 13.7 µM (inactive) in the test on UACC-257. Also, the GI50 with CCRF-CEM was 20.7 µM (inactive); with HCC 2998 it was 24.7 µM (inactive); with SK-MEL-28, 12.1 µM (inactive); with SN12C, 23.8 µM (inactive); in the test on SNB-75, 18.1 µM (inactive); in the test with IGROV-1, 24.5 µM (inactive). Besides, the GI50 with OVCAR-3 was 31 µM (inactive); in the test on HT-29 it was 18.8 µM (inactive); in the test with U-251, 17 µM (inactive); with RPMI-8226 it was 5.35 µM (inactive); in the test with UO-31, 28.2 µM (inactive); with SF-539, 22.6 µM (inactive).

In the case of `O=c1cccccc1NCCNc1cccccc1=O`, the GI50 is > 100 µM (inactive) in the test on HCT-116; > 100 µM (inactive) in the test on UACC-62; > 100 µM (inactive) in the test with OVCAR-5; more than 100 µM in the test on HCT-15; > 100 µM (inactive) in the test on SK-OV-3; > 100 µM (inactive) in the test with UACC-257. The GI50 is > 100 µM (inactive) in the test on CCRF-CEM; 13.6 µM (inactive) in the test on SN12C; > 10 µM (inactive) in the test on SNB-75; > 100 µM (inactive) in the test with IGROV-1; > 100 µM (inactive) with OVCAR-3; > 100 µM (inactive) in the test on HT-29. Moreover, the GI50 in the test with U-251, in the test on RPMI-8226, in the test on UO-31 and in the test with SF-539 was > 100 µM (inactive) in each case.

As to `OCc1ccc(C2CC(c3ccco3)=NN2c2ccccc2)o1` (configuration not stated), the GI50 in the test on HCT-116 is > 100 µM (inactive); in the test on UACC-62, > 100 µM (inactive); in the test with OVCAR-5, > 100 µM (inactive); with HCT-15 it was more than 100 µM; with CCRF-CEM, > 100 µM (inactive); with SK-MEL-28, > 100 µM (inactive). For the same molecule, the GI50 in the test on SN12C is > 100 µM (inactive); with SNB-75, 20 µM (inactive); in the test with IGROV-1, > 100 µM (inactive); in the test on OVCAR-3 it was > 100 µM (inactive); in the test on HT-29, > 100 µM (inactive); with U-251, > 100 µM (inactive). For the same molecule, the GI50 in the test with RPMI-8226, in the test on UO-31 and in the test with SF-539 was > 100 µM (inactive) in each case.

For `COc1cc2ccc3c4cc(OC)c(OC(C)C)cc4cnc3c2cc1OC`, the GI50 was > 100 µM (inactive) in the test with HCT-116; > 100 µM (inactive) in the test with UACC-62; > 100 µM (inactive) with OVCAR-5; more than 100 µM in the test with HCT-15; > 100 µM (inactive) with SK-OV-3; > 100 µM (inactive) in the test with UACC-257. For the same molecule, the GI50 with CCRF-CEM, in the test on HCC 2998, in the test with SK-MEL-28, in the test on SN12C, with SNB-75 and in the test on IGROV-1 was > 100 µM (inactive) throughout. Moreover, the GI50 with OVCAR-3, with HT-29, with U-251, with RPMI-8226, with UO-31 and in the test with SF-539 was > 100 µM (inactive) each time.

As to `CC(C)(C)OC(=O)[C@@H]1ON2O[C@H](OC3CCCC3(c3ccccc3)c3ccccc3)C[C@H]3OC(=O)[C@@H]1[C@H]32` (some centres not stated), the GI50 is 32 µM (inactive) with HCT-116; 98.9 µM (inactive) with UACC-62; > 100 µM (inactive) in the test with OVCAR-5; 31.8 µM in the test with HCT-15; > 100 µM (inactive) in the test on SK-OV-3; 71.3 µM (inactive) in the test with UACC-257. Moreover, the GI50 was > 100 µM (inactive) with CCRF-CEM; 95.1 µM (inactive) in the test with SK-MEL-28; 58.5 µM (inactive) in the test on SN12C; 25.8 µM (inactive) with SNB-75; 38.7 µM (inactive) in the test with IGROV-1; 16.1 µM (inactive) in the test with OVCAR-3. For the same molecule, the GI50 in the test with HT-29 is 38.8 µM (inactive); in the test on U-251, > 100 µM (inactive); in the test with UO-31, 71.9 µM (inactive); in the test on SF-539 it was > 100 µM (inactive).

As to `COc1cc(C(C#N)NNC(=O)c2ccccc2O)ccc1O` (configuration not stated), the GI50 in the test with HCT-116 was 2.26 µM (inactive); with UACC-62 it was 0.887 µM (active); in the test with OVCAR-5, 10.7 µM (inactive); in the test on HCT-15, 4.06 µM; in the test on SK-OV-3, 3.18 µM (inactive); with UACC-257 it was 6.35 µM (inactive). The GI50 is 2.08 µM (inactive) in the test with CCRF-CEM; 30.6 µM (inactive) with SK-MEL-28; 7.03 µM (inactive) with SN12C; 0.356 µM (active) in the test with SNB-75; 1.54 µM (inactive) in the test on IGROV-1; 3.44 µM (inactive) in the test on OVCAR-3. In addition, the GI50 in the test with HT-29 is 23.4 µM (inactive); in the test on U-251 it was 0.843 µM (active); in the test on RPMI-8226, 9.64 µM (inactive); with UO-31, 0.701 µM (active); in the test on SF-539 it was 3 µM (inactive).
